Assay results as given in publication PMC8952293, “A Histone Deacetylase (HDAC) Inhibitor with Pleiotropic In Vitro Anti-Toxoplasma and Anti-Plasmodium Activities Controls Acute and Chronic Toxoplasma Infection in Mice” (International Journal of Molecular Sciences, 2022).

What was measured:
[1] = mouse, in vivo
[2] = tested on: T. gondii type II Prugniaud strain; experiment: Chronic phase study: brain cyst burden in infected CBA mice; format: in vivo, mouse
Protocol: To assess the efficacy of compound JF363 on Toxoplasma cyst formation, infected CBA mice were treated for 15 days, two months post-infection. Then, 15 days later, mice were sacrificed, and brain cysts were counted.
Inbred CBA mice (Janvier Labs, Le Genest-Saint-Isle, France) were infected with 500 tachyzoites of Pru-DeltaKu80::HX strain. One month post-infection, effective infection was assessed by ELISA as described previously. Two months post-infection, mice were treated with 20 or 40 mg/kg of JF363 (corn oil/5% DMSO) for 15 days. Animals were sacrificed 15 days later, corresponding to 3 months post-infection, and brain cysts were counted. After removal and homogenization of mouse’s brain in 4 mL of PBS, suspensions were clarified by gentle incubation in proteinase K buffer (proteinase K 0.4 mg/mL, 10 mM Tris pH 8, ethylenediaminetetraacetic acid (EDTA) 1 mM, sodium dodecyl sulfate (SDS) 0.2%, sodium chloride 40 mM) for 15 min at 56 °C. The reaction was stopped by adding phenylmethylsulfonyl fluoride (PMSF) 2 mM and further incubation for 5 min at room temperature. The suspension was then washed with PBS and resuspended with fluorescein isothiocyanate (FITC)–Dolichos biflorus agglutinin (Vector Laboratories, CA, USA) […] for 30 min, at room temperature. At the end of the incubation, the suspension was washed with PBS and resuspended in a final volume of 1 mL of PBS distributed into six-well culture plates (1 brain per well). The number of cysts was counted by exanimation under an Axiovert 40 CFL inverted fluorescence microscope, Zeiss.

[3] = Ex vivo biodistribution, ratios infected/control mice; format: in vivo; conditions: suggested from brain radioactivity of the iodinated radiotracer
Protocol: Twenty-four hours after injection and immediately following SPECT/CT image acquisitions, anesthetized mice were euthanized using CO2, and tissue samples (brain, heart, stomach, liver, salivary glands, abdominal fat, small intestine, muscle, pancreas, lungs, spleen, kidneys, blood, thyroid, large intestine, genital tract) and urine were harvested. Samples were weighed, and their radioactivity was determined with a gamma counter (Wizard2, PerkinElmer, Courtaboeuf, France). Results were corrected for decay, injected dose, and organ weight and expressed as % ID/g because the bodyweight (BW) of mice was different between both groups (normal and infected).
Standard uptake values (SUVs) were also calculated ((tissue activity/gram of tissue)/ID × BW). Due to high activity detected in the animal blood, results were also expressed as a ratio between %ID in a gram of organ and %ID in a gram of blood (org/blood ratio). Then, to assess the effect of Toxoplasma infection on the biodistribution of the iodoJF363, the ratios of radioactivity (infected/noninfected) were calculated.

COc1cccc(CC(=O)Nc2ccc(C(=O)NO)cc2)c1 [JF363]
toxicity in healthy treated mice (survival, hair loss, erythema, organ failure) [1]: not toxic | diminution of cyst burden in the brain compared to untreated animals ([2]; 40 mg/kg): 65% | number of brain cysts, range ([2]; 40 mg/kg oral for 15 days, two months post-infection, nontreated 76 to 312): 21–85 | number of brain cysts (mean ± SD) ([2]; 40 mg/kg oral for 15 days, two months post-infection, nontreated 168 ± 95, p < 0.05): 57 ± 29 | blood–brain barrier permeability [3]: suggests a permeability of the blood–brain barrier
